Assay results reported in ChEMBL document CHEMBL5728754 (2021).
pKi: −log10 of the molar value.

Target: Mitogen-activated protein kinase kinase kinase kinase 1 (Homo sapiens, UniProt Q92918)
Test: HPK1 Biochemical Enzyme Assay: HPK1 enzyme inhibition was measured using a microfluidic mobility shift assay (MSA). The reactions were conducted in 50 μL volumes in 96-well plates, and contained 0.5 nM human full-length recombinant HPK1, 3 μM phosphoacceptor peptide, 5FAM-[…]-COOH (CPC Scientific, Sunnyvale, Calif.), test compound (11-dose 3-fold serial dilutions, 2% DMSO final) or DMSO only, 0.002% Tween-20, 1 mM DTT and 2.5 mM MgCl2 in 50 mM MOPS (3-(N-morpholino)propanesulfonic acid), pH 7.8, buffer and were initiated by addition of 75 μM ATP, following a 20-min preincubation. The reactions were conducted for 60 min at 37° C., stopped by the addition of 50 μL of 0.015 M EDTA, pH 8, and the extent of reactions (˜15-20% conversion with no inhibitor) was determined after electrophoretic separation of the fluorescently labeled peptide substrate and phosphorylated product on an LabChip EZ Reader II (PerkinElmer, Inc., Waltham, Mass.).Inhibition of HPK1 was also measured using the fluorescence based chelation-enhanced fluorescence (CHEF) method (1), using a proprietary fluorescent peptide substrate, in which a cysteine residue is alkylated with a sulfonamido-oxine based derivative to afford an amino acid termed C-Sox (CSx). The assay was conducted similarly as described for the MSA method above, but using 3 μM Ac-[CSx][…]-amide peptide substrate (also known as AQT0178 when purchased from AssayQuant Technologies Inc., Hopkinton, Mass.) and 45 μM ATP. Initial reaction velocities were determined by following the peptide fluorescence (λex=360 nm, λem=500 nm) at 30° C. for 15 min in a Tecan M1000 plate reader (Tecan Group Ltd., Männedorf, Zürich, Switzerland). […] HPK1 protein was produced in-house and preactivated by autophosphorylation of enzyme with MgATP as described in the section “Production of recombinant autophosphorylated full-length HPK1”.
Format: single protein

Chain of Mitogen-activated protein kinase kinase kinase kinase 1 (Q92918 whole entry): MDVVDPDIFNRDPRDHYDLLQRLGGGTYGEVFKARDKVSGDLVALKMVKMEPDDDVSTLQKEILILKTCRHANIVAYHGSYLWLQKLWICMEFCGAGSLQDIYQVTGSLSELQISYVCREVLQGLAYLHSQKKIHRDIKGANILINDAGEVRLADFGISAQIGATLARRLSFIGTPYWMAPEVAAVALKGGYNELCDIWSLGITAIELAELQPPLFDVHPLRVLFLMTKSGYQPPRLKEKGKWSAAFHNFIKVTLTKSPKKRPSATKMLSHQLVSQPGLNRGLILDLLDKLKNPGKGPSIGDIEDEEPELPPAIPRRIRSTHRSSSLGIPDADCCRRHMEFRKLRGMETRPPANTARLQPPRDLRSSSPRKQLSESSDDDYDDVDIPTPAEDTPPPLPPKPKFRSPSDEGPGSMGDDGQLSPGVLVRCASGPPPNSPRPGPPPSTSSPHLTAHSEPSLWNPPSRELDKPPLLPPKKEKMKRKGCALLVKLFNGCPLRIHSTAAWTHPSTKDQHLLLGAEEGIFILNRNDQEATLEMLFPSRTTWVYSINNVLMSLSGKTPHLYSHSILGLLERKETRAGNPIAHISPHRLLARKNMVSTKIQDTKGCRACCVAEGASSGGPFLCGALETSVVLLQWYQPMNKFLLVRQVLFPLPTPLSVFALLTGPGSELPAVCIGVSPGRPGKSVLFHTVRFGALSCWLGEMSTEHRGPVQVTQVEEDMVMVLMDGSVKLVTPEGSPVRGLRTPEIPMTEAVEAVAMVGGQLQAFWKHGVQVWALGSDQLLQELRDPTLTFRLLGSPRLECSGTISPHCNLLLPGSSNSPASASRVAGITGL

pKi	Structure (SMILES)
10.05	CCn1c(C)nnc1-c1cccc(N2Cc3c(cc(N4CCC[C@H]4C)nc3CNC)C2=O)n1
9.14	CNCc1nc(NC)cc2c1CN(c1cccc(-c3nncn3C(C)C)n1)C2=O
> 10.15	CNCc1nc(N2CCCC2)cc2c1CN(c1cccc(-c3nncn3[C@@H](C)CC(F)(F)F)n1)C2=O
10.00	Cc1nnc(-c2cccc(N3Cc4c(cc(N5CCCC5(C)C)nc4CN)C3=O)n2)n1C(C)C
